This assay relates to HCV2aChLuc virus. The experiment in a line: In vitro HCVcc entry assay: HCV2aChLuc virus infection of Huh7 cells, Renilla luciferase read-out. Format: cell-based, HCV genotype 2a. As to conditions: Hepatitis C virus, Huh-7, read-out: Activity class (IC50), tested according to the method of Example 3.

Broadly, the IC50 is the point on the concentration scale where inhibition reaches its midpoint. Consider `CC(C)(C)c1cc(NC(=O)C(=O)c2ccc(OCCN3CCOCC3)c3ccccc23)n(-c2ccccc2)n1` [Compound 34], for which the IC50 was > 500 nM.
In the case of `COc1ccc(-n2nc(C(C)(C)C)cc2NC(=O)C(=O)c2ccc(OCCN3CCOCC3)c3ccccc23)cc1` [Compound 35] it was > 500 nM.
In the case of `Cc1ccc(-n2nc(C(C)(C)C)cc2NC(=O)C(=O)c2ccc(OCCN3CCS(=O)(=O)CC3)c3ccccc23)cc1` [Compound 36] it was > 500 nM.
Regarding `Cc1ccc(-n2nc(C(C)(C)C)cc2NC(=O)C(=O)c2ccc(OCCN3CC[S+]([O-])CC3)c3ccccc23)cc1` [Compound 37], the IC50 was > 500 nM.
In the case of `Cc1ccc(-n2nc(C(C)(C)C)cc2NC(=O)C(=O)c2ccc(OCCN3CCCOCC3)c3ccccc23)cc1` [Compound 38] it was > 500 nM; in that of `Cc1ccc(-n2nc(C(C)(C)C)cc2NC(=O)C(=O)c2ccc(CCN3CCNCC3)c3ccccc23)cc1` [Compound 39], > 500 nM; in that of `CCOc1ccc(C(C)(C)C)cc1NC(=O)C(=O)c1ccc(OCCN2CCOCC2)c2ccccc12` [Compound 41], > 500 nM.
In the case of `CC(C)Oc1ccc(C(C)(C)C)cc1NC(=O)C(=O)c1ccc(OCCN2CCOCC2)c2ccccc12` [Compound 42] it was > 500 nM; in that of `CC(C)(C)c1ccccc1NC(=O)C(=O)c1ccc(OCCN2CCOCC2)c2ccccc12` [Compound 43], > 500 nM; in that of `CC(C)(C)c1cc(NC(=O)C(=O)c2ccc(OCCN3CCOCC3)c3ccccc23)[nH]n1` [Compound 44], > 500 nM.
In the case of `Cc1cc(-n2nc(C(C)(C)C)cc2NC(=O)C(=O)c2ccc(OCCN3CCOCC3)c3ccccc23)ccc1F` [Compound 45] it was > 500 nM.
With `CC(=O)n1nc(C(C)(C)C)cc1NC(=O)C(=O)c1ccc(OCCN2CCOCC2)c2ccccc12` [Compound 46], the concentration for half-maximal inhibition (IC50) is > 500 nM.
As for `CC(C)(C)c1cc(C(F)(F)F)nc(NC(=O)C(=O)c2ccc(OCCN3CCOCC3)c3ccccc23)n1` [Compound 47], the IC50 was > 500 nM.
For `CC(C)(C)c1cc(N)nc(NC(=O)C(=O)c2ccc(OCCN3CCOCC3)c3ccccc23)n1` [Compound 48] the value was > 500 nM.
For `Cc1cccc(-n2nc(C(C)(C)C)cc2NC(=O)C(=O)c2ccc(OCCN3CCOCC3)c3ccccc23)c1C` [Compound 49] the value was > 500 nM.
In the case of `Cn1nc(C(C)(C)C)cc1NC(=O)C(=O)c1ccc(OCCN2CCOCC2)c2ccccc12` [Compound 50] it was > 500 nM; in that of `COc1c(NC(=O)C(=O)c2ccc(OCCN3CCN(C)CC3)c3ccccc23)cc(C(C)(C)C)cc1NS(C)(=O)=O` [Compound 51], > 500 nM.
Regarding `CCOC(=O)N1CCN(CCOc2ccc(C(=O)C(=O)Nc3cc(C(C)(C)C)cc(NS(C)(=O)=O)c3OC)c3ccccc23)CC1` [Compound 52], the IC50 was in the range of 5 to 500 nM.
For `COc1c(NC(=O)C(=O)c2ccc(OCCN3CCNC(=O)C3)c3ccccc23)cc(C(C)(C)C)cc1NS(C)(=O)=O` [Compound 53] the value was > 500 nM; for `COc1c(NC(=O)C(=O)c2ccc(OCCN3CCN(C(C)=O)CC3)c3ccccc23)cc(C(C)(C)C)cc1NS(C)(=O)=O` [Compound 54], 5 to 500 nM; for `COc1c(NC(=O)C(=O)c2ccc(OCCn3ccnc3)c3ccccc23)cc(C(C)(C)C)cc1NS(C)(=O)=O` [Compound 55], 5 to 500 nM.
For `COc1c(NC(=O)C(=O)c2ccc(OCCN3CCN(C(=O)OC(C)(C)C)CC3)c3ccccc23)cc(C(C)(C)C)cc1NS(C)(=O)=O` [Compound 56] the value was 5 to 500 nM; for `COc1c(NC(=O)C(=O)c2ccc(OCCN3CC(C)OC(C)C3)c3ccccc23)cc(C(C)(C)C)cc1NS(C)(=O)=O` (centres unmarked) [Compound 57], 5 to 500 nM.
In the case of `COc1c(NC(=O)C(=O)c2ccc(OCCN3CCNCC3)c3ccccc23)cc(C(C)(C)C)cc1NS(C)(=O)=O` [Compound 58] it was > 500 nM; in that of `CC(C)(C)c1cc(NC(=O)C(=O)c2ccc(OCCN3CCOCC3)c3ccccc23)n(C(C)(C)C)n1` [Compound 59], > 500 nM; in that of `CC(C)(C)c1cc(NC(=O)C(=O)c2ccc(OCCN3CCOCC3)c3ccccc23)no1` [Compound 60], > 500 nM.
Regarding `CC(C)(C)c1nnc(NC(=O)C(=O)c2ccc(OCCN3CCOCC3)c3ccccc23)s1` [Compound 61], the half-inhibitory concentration (IC50) is > 500 nM.
For `Cc1ccc(C(C)C)cc1NC(=O)C(=O)c1ccc(OCCN2CCOCC2)c2ccccc12` [Compound 62] the value was 5 to 500 nM.
For `Cc1ccc(C)c(NC(=O)C(=O)c2ccc(OCCN3CCOCC3)c3ccccc23)c1` [Compound 63] the value was > 500 nM.
In the case of `O=C(Nc1ccc2c(c1)CCC2)C(=O)c1ccc(OCCN2CCOCC2)c2ccccc12` [Compound 64] it was > 500 nM; in that of `O=C(Nc1cccc2c1CCC2)C(=O)c1ccc(OCCN2CCOCC2)c2ccccc12` [Compound 65], 5 to 500 nM; in that of `CC(C)(C)CCNC(=O)C(=O)c1ccc(OCCN2CCOCC2)c2ccccc12` [Compound 66], > 500 nM.
On to `CC(C)(C)CC(C)(C)NC(=O)C(=O)c1ccc(OCCN2CCOCC2)c2ccccc12` [Compound 67], for which the IC50 was > 500 nM.
In the case of `O=C(N[C@@H]1C[C@H]2CC[C@@H]1C2)C(=O)c1ccc(OCCN2CCOCC2)c2ccccc12` [Compound 68] it was > 500 nM.
In the case of `CC1(C)[C@@H]2CC[C@@]1(C)[C@@H](NC(=O)C(=O)c1ccc(OCCN3CCOCC3)c3ccccc13)C2` [Compound 69] it was > 500 nM.
For `CC(C)(C)c1cc(NC(=O)C(=O)c2ccc(OCCN3CCOCC3)c3ccccc23)on1` [Compound 70] the value was > 500 nM; for `CCNC(=O)c1cc(C(C)(C)C)cc(NC(=O)C(=O)c2ccc(OCCN3CCOCC3)c3ccccc23)c1O` [Compound 71], 5 to 500 nM; for `COc1c(Cl)cc(C(C)(C)C)cc1NC(=O)C(=O)c1ccc(OCCN2CCOCC2)c2ccccc12` [Compound 72], 5 to 500 nM.
For the compound `COc1ccc(C(C)(C)C)cc1NC(=O)C(=O)c1ccc(Nc2ccnc(N3CCOCC3)n2)c2ccccc12` [Compound 73], the IC50 was > 500 nM.
For `COc1c(NC(=O)C(=O)c2ccc(OCCN3CCOCC3)c3ccc(Cl)cc23)cc(C(C)(C)C)cc1NS(C)(=O)=O` [Compound 74] the value was 5 to 500 nM; for `COc1c(NC(=O)C(=O)c2ccc(OC)c3ccccc23)cc(C(C)(C)C)cc1NS(C)(=O)=O` [Compound 75], 5 to 500 nM; for `COc1c(NC(=O)C(=O)c2ccc(OCCN3CCOCC3)c3cccc(Cl)c23)cc(C(C)(C)C)cc1NS(C)(=O)=O` [Compound 76], > 500 nM.
In the case of `COc1c(NC(=O)C(=O)c2ccc(OC)c3ccccc23)cc(C(C)(C)C)cc1C(N)=O` [Compound 77] it was > 500 nM; in that of `CCCS(=O)(=O)Nc1cc(C(C)(C)C)cc(NC(=O)C(=O)c2ccc(OC)c3ccccc23)c1OC` [Compound 78], 5 to 500 nM; in that of `CCN(CC)CCOc1ccc(C(=O)C(=O)Nc2cc(C(C)(C)C)cc(NS(C)(=O)=O)c2OC)c2ccccc12` [Compound 79], > 500 nM.
For `COc1c(NC(=O)C(=O)c2ccc(OCCN(C)C)c3ccccc23)cc(C(C)(C)C)cc1NS(C)(=O)=O` [Compound 80] the value was > 500 nM; for `O=C(Nc1cnc2ccccc2c1)C(=O)c1ccc(OCCN2CCOCC2)c2ccccc12` [Compound 81], > 500 nM.

The values are drawn from US20110117055A1, “Methods of Treating Hepatitis C Virus with Oxoacetamide Compounds” (priority 2009, published 2011).
